PMC10282731, “Pyrrolo[2,3-e]indazole as a novel chemotype for both influenza A virus and pneumococcal neuraminidase inhibitors” (RSC Advances, 2023)
Values after ≈ are worked out from the molar mass of the structure shown. Values joined by “and” are separate entries in the source; they are usually repeats but may differ in a detail not shown here. Equal entries are not always repeated. Where two headings read alike, the source gives them in different places.

Legend:
S. pneumoniae DSM20566 [1] = assay: Planktonic growth inhibition, microtiter broth microdilution assay; assay type: cell-based, Streptococcus pneumoniae; details: Streptococcus pneumoniae, read-out: IC50 Planktonic growth
S. pneumoniae DSM20566 [2] = assay: Biofilm formation inhibition assay (crystal violet); assay type: cell-based, Streptococcus pneumoniae; details: Streptococcus pneumoniae, read-out: IC50 Biofilm formation
[3] = tested on: neuraminidase of influenza A virus (IAV NA); assay: Human erythrocyte-based (hemagglutination-based) viral neuraminidase inhibition assay; assay type: biochemical, influenza A virus A/Jena/8178/09; details: human erythrocytes, 37 °C for 24 h, maximum 100 µM for test compounds
[4] = target: neuraminidase NanA of S. pneumoniae strain DSM20566 (Streptococcus pneumoniae, UniProt P62575); assay: Lectin-based hemagglutination NA inhibition assay with pneumococcal neuraminidase; assay type: biochemical; details: ethanol-precipitated proteins of S. pneumoniae DSM20566, lectin-based hemagglutination assay
Chain of neuraminidase NanA of S. pneumoniae strain DSM20566 (P62575 54-1035): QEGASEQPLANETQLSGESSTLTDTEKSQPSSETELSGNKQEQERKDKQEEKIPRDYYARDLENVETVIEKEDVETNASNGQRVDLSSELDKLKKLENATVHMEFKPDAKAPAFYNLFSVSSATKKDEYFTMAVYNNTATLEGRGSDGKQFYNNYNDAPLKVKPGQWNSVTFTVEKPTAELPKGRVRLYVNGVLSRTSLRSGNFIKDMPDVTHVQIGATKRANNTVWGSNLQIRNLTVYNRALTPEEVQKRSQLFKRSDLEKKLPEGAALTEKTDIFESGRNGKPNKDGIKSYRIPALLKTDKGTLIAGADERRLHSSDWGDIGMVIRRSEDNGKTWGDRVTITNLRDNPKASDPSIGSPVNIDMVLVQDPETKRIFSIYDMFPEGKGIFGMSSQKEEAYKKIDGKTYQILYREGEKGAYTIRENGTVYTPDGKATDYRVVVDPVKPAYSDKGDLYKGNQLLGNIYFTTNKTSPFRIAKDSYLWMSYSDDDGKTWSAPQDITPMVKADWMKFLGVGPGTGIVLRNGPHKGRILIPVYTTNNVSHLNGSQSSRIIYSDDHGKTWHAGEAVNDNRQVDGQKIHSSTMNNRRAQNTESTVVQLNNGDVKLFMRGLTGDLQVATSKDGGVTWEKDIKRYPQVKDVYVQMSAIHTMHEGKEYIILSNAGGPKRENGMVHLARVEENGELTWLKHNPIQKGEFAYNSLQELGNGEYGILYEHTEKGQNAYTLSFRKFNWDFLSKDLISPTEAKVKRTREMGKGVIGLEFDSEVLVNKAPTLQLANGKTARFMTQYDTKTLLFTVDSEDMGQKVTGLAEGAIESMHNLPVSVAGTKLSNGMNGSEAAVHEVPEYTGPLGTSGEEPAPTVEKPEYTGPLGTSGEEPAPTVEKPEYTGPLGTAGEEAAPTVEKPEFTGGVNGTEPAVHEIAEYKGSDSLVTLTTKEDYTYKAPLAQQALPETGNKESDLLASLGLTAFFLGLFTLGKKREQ

in vitro = details: dog
[5] = tested on: influenza A virus A/Jena/8178/09 (subtype A(H1N1)pdm09); assay: Influenza A virus-induced CPE inhibition assay in MDCK cells (A/Jena/8178/09); assay type: cell-based; details: A(H1N1)pdm09, 48 h, maximum 100 µM, n.a. = not active, read-out: IC50 (IAV) Jena/8178
[6] = tested on: influenza A virus A/HK/1/68 (subtype H3N2); assay: Influenza A virus-induced CPE inhibition assay in MDCK cells (A/HK/1/68); assay type: cell-based; details: H3N2, 48 h, maximum 100 µM, n.a. = not active, read-out: IC50 (IAV) HK/1/68
MDCK cells = details: read-out: CC50 (MDCK), 72 h incubation, maximum 100 µM
[7] = S. pneumoniae DSM20566, 24 h, crystal violet, maximum 50 μM

Molecule | melting point | MIC IAV NA (minimum neuraminidase inhibitory concentration) [3] | MIC S.p. NanA (minimum neuraminidase inhibitory concentration) [4] | CC50 at 72 h (in vitro) | IC50 ([5]; Influenza A virus) | also measured
CCOC(=O)c1c(CN2CCCCC2)n(C)c2c1cc(O)c1c2c(-c2ccccc2)nn1-c1ccccc1 [Compound 10a] | 285 °C | 54.40 µM (≈ 27.7 µg/mL) | 31.60 µM (≈ 16.1 µg/mL) | > 100 µM | 86.7 µM | IC50 (S. pneumoniae DSM20566 [1]; S. pneumoniae DSM20566, 18 h, OD 620 nm, maximum 50 μM): 6.88 µM; IC50 (S. pneumoniae DSM20566 [2]; [7]): 3.31 µM
CCOC(=O)c1c(CN(CC)CC)n(C)c2c1cc(OC(C)=O)c1c2c(-c2ccccc2)nn1-c1ccccc1 [Compound 9b] | – | 77.20 µM (≈ 41.6 µg/mL) | 24.40 µM (≈ 13.1 µg/mL) | > 100 µM | 53.2 µM | –
CCOC(=O)c1c(C)n(Cc2ccccc2)c2c1cc(OC(C)=O)c1c2c(-c2ccccc2)nn1-c1ccccc1 [Compound 7b] | – | 100.00 µM (≈ 54.4 µg/mL) | 31.60 µM (≈ 17.2 µg/mL) | – | 38.7 µM | CC50 (in vitro): > 100 µM
CCOC(=O)c1c(C)[nH]c2c1cc(O)c1c2c(-c2ccc(-n3cccc3)cc2)nn1-c1ccccc1 [Compound 14] | – | 24.40 µM (≈ 11.6 µg/mL) | 10.0 µM and 10.00 µM | > 100 µM | 11.4 µM | IC50 (S. pneumoniae DSM20566 [2]; [7]): 28 µM
CCOC(=O)c1c(C)n(CC)c2c1cc(OCC)c1c2c(-c2ccc([N+](=O)[O-])cc2)nn1-c1ccccc1 [Compound 11b] | 175 to 177 °C | 77.20 µM (≈ 39.6 µg/mL) | 54.40 µM (≈ 27.9 µg/mL) | – | 25.5 µM | CC50 (in vitro): > 100 µM
CCOC(=O)c1c(C)[nH]c2c1cc(O)c1c2c(-c2ccc(N)cc2)nn1-c1ccccc1 [Compound 12] | – | 21.40 µM (≈ 9.13 µg/mL) | 10.0 µM and 10.00 µM | > 100 µM | 15.7 µM | IC50 ([6]; Influenza A virus): 8.54 µM
CCOC(=O)c1c(C)[nH]c2c1cc(O)c1c2c(-c2cc(Cl)cc(Cl)c2)nn1-c1ccccc1 [Compound 6k] | – | – | – | > 100 µM | – | IC50 ([6]; Influenza A virus): 30.2 µM
CCOC(=O)c1c(C)n(-c2ccc(OC)cc2)c2c1cc(O)c1c2c(-c2ccccc2)nn1-c1ccccc1 [Compound 6d, 5-Hydroxy-3-ethoxycarbonyl-1-(4-methoxyphenyl)-2-methyl-6,8-diphenyl-pyrrolo[2,3-e]indazole] | 277 to 279 °C | 54.40 µM (≈ 28.2 µg/mL) | 17.20 µM (≈ 8.9 µg/mL) | > 100 µM | 38.6 µM | –
CCOC(=O)c1c(CN2CCOCC2)n(Cc2ccccc2)c2c1cc(O)c1c2c(-c2ccccc2)nn1-c1ccccc1 [Compound 10b] | 145 to 146 °C | 54.40 µM (≈ 31.9 µg/mL) | 10.0 µM and 10.00 µM | – | 33.2 µM | IC50 (S. pneumoniae DSM20566 [1]; DSM20566, 18 h): 7.57 µM; CC50 (in vitro): > 100 µM
CCOC(=O)c1c(C)n(Cc2ccccc2)c2c1cc(O)c1c2c(-c2ccccc2)nn1-c1ccccc1 [Compound 6c, 1-Benzyl-5-hydroxy-3-ethoxycarbonyl-2-methyl-6,8-diphenyl-pyrrolo[2,3-e]indazole] | 256 to 258 °C | 77.20 µM (≈ 38.7 µg/mL) | 24.40 µM (≈ 12.2 µg/mL) | – | 71.1 µM | IC50 (S. pneumoniae DSM20566 [1]; DSM20566, 18 h): 8.9 µM; IC50 (S. pneumoniae DSM20566 [2]; DSM20566, 24 h): 0.93 µM; CC50 (in vitro): > 100 µM
CC(=O)N[C@H]1[C@H]([C@H](O)[C@H](O)CO)OC(C(=O)O)=C[C@@H]1N=C(N)N [Zanamivir, zanamivir, reference compound] | – | 3.16 µM (≈ 1.05 µg/mL) | – | – | 0.11 µM | –
CCOC(=O)c1c(C)n(Cc2ccccc2)c2c1cc(O)c1c2c(-c2ccc([N+](=O)[O-])cc2)nn1-c1ccccc1 [Compound 6g, 1-Benzyl-5-hydroxy-3-ethoxycarbonyl-2-methyl-8-(4-nitrophenyl)-6-phenyl-pyrrolo[2,3-e]indazole] | 226 to 228 °C | – | – | – | – | CC50 (in vitro): > 100 µM
CCCCCOc1cc2c(C(=O)OCC)c(C)[nH]c2c2c(-c3ccc([N+](=O)[O-])cc3)nn(-c3ccccc3)c12 [Compound 11d] | – | – | – | > 100 µM | 26.5 µM | –
CCOC(=O)c1c(CN2CCCCC2)n(C)c2c1cc(OC(C)=O)c1c2c(-c2ccccc2)nn1-c1ccccc1 [Compound 9a] | 203 to 205 °C | does not inhibit | 54.40 µM (≈ 30 µg/mL) | > 100 µM | – | –
CCOC(=O)c1c(C)[nH]c2c1cc(OC(C)=O)c1c2c(-c2ccc([N+](=O)[O-])cc2)nn1-c1ccccc1 [Compound 11e] | – | 17.20 µM (≈ 8.57 µg/mL) | 10.0 µM and 10.00 µM | > 100 µM | 16.7 µM | –
CCOC(=O)c1c(C)[nH]c2c1cc(O)c1c2c(-c2ccc(CC)cc2)nn1-c1ccccc1 [Compound 6j] | – | – | – | > 100 µM | – | IC50 ([6]; Influenza A virus): 52.2 µM
5-hydroxy-3-ethoxycarbonyl-2-methyl-6,8-diphenyl-pyrrolo[2,3-e]indazole [Compound 6a] | – | 70.00 µM | 31.60 µM | – | – | CC50 (MDCK cells): > 100 µM
CCOC(=O)c1c(C)[nH]c2c1cc(OCC)c1c2c(-c2ccc([N+](=O)[O-])cc2)nn1-c1ccccc1 [Compound 11c] | – | 47.20 µM (≈ 22.9 µg/mL) | 54.40 µM (≈ 26.4 µg/mL) | > 100 µM | 30.3 µM | –
CCOC(=O)c1c(C)n(C)c2c1cc(OC)c1c2c(-c2ccc([N+](=O)[O-])cc2)nn1-c1ccccc1 [Compound 11a] | – | 24.40 µM (≈ 11.8 µg/mL) | 31.60 µM (≈ 15.3 µg/mL) | > 100 µM | 21.5 µM | –
CCOC(=O)c1c(C)n(C)c2c1cc(O)c1c2c(-c2ccc([N+](=O)[O-])cc2)nn1-c1ccccc1 [Compound 6f, 5-Hydroxy-3-ethoxycarbonyl-1,2-dimethyl-8-(4-nitrophenyl)-6-phenyl-pyrrolo[2,3-e]indazole] | 258 to 261 °C | 77.20 µM (≈ 36.3 µg/mL) | 31.60 µM (≈ 14.9 µg/mL) | > 100 µM | – | IC50 ([6]; Influenza A virus): 42.5 µM
CCOC(=O)c1c(C)n(C)c2c1cc(O)c1c2c(-c2ccccc2)nn1-c1ccccc1 [Compound 6b, 5-Hydroxy-3-ethoxycarbonyl-1,2-dimethyl-6,8-diphenyl-pyrrolo[2,3-e]indazole] | 270 to 272 °C | 31.60 µM (≈ 13.4 µg/mL) | 31.60 µM (≈ 13.4 µg/mL) | > 100 µM | 31.6 µM | –
CCOC(=O)c1c(C)n(C)c2c1cc(OC(C)=O)c1c2c(-c2ccccc2)nn1-c1ccccc1 [Compound 7a] | 214 to 216 °C | 100.00 µM (≈ 46.8 µg/mL) | 31.60 µM (≈ 14.8 µg/mL) | > 100 µM | 83.7 µM | –
5-Hydroxy-3-ethoxycarbonyl-2-methyl-8-(4-nitrophenyl)-6-phenyl-pyrrolo[2,3-e]indazole [Compound 6e] | – | 54.40 µM | 14.32 µM | – | – | CC50 (MDCK cells): > 100 µM; IC50 [6]: 16.4 µM; IC50 [5]: 19.5 µM
